Legend:
[1] = target: T1, fucosyltransferase VII (FTVII) (Homo sapiens, UniProt Q11130); test: FTVII exofucosylation of mesenchymal stem cells (MSC), sLe^x by flow cytometry; assay type: cell-based; details: MSCs
T1 sequence (Q11130 37-342 limits assumed): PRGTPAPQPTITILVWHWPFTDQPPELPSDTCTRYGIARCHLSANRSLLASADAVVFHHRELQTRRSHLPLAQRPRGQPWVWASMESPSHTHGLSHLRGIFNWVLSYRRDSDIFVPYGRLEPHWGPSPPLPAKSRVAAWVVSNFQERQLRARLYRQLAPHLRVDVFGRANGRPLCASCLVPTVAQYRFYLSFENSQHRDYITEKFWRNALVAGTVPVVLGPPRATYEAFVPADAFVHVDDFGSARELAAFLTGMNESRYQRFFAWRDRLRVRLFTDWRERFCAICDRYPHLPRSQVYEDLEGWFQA
Protocol: (§1) A Canto II (BD Biosciences) flow cytometer was utilized for flow cytometry and the data acquired was analyzed using FlowJo Software (Treestar). Cells were stained using antibodies specific to sLe^X (Alexa-Fluor 488 Mouse Anti-Human CD15s (BD Biosciences)), or Le^X (APC anti-human CD15 (SSEA-1) Antibody (BioLegend)).
(§2) Cells of the RPMI-8402 cell line and MSC cell line were treated with either 0.3 ug of fucosyltransferase VI (FTVI), 2.7 ug of fucosyltransferase VII (FTVII), 1.0 ug fucosyltransferase IX (FTIX) or buffer-only at 37° C. for 60 minutes. All reactions contained at 1×10^6 cells/30 ul in HBSS with 10 mM Hepes, 0.1% Human Serum Albumin, and 1.0 mM GDP fucose (GDP-Fuc) (Carbosynth) and the appropriate fucosytransferase. Then, mimetic 1 was added to each of the treatment groups in molar equivalents with respect to GDP-Fuc with each of the fucosytransferases. […]
(§3) Mimetic 1 (FIG. 1) was tested as an inhibitor of FT-mediated exofucosylation on these cells and the extent of fucosylation was monitored using antibodies that detect the creation of the relevant fucosylated epitopes, i.e., sLe^x or Le^x. […]

[2] = target: T2, fucosyltransferase IX (FTIX) (Homo sapiens, UniProt Q9Y231); test: FTIX exofucosylation of mesenchymal stem cells (MSC), Le^x by flow cytometry; assay type: cell-based; details: MSCs; same conditions as RPMI-8402 cells
T2 sequence (Q9Y231 1-359): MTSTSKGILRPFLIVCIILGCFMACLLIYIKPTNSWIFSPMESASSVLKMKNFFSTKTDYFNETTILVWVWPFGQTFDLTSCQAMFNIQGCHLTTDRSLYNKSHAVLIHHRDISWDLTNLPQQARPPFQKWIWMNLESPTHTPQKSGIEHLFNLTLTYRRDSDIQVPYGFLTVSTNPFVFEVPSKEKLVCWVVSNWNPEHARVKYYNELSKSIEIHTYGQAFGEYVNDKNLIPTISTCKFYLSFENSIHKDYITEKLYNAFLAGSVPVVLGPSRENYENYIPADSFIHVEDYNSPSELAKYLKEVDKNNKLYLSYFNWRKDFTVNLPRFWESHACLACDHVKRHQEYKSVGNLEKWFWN
Protocol: as §1, §2, §3

[3] = target: T3, fucosyltransferase VI (FTVI) (Homo sapiens, UniProt P51993); test: FTVI exofucosylation of mesenchymal stem cells (MSC), sLe^x and Le^x by flow cytometry; assay type: cell-based; details: MSCs; 1.0 mM GDP-Fuc with 1.0 mM or 2.0 mM mimetic 1
T3 construct: purchased R&D systems
T3 sequence (P51993 35-359 limits assumed): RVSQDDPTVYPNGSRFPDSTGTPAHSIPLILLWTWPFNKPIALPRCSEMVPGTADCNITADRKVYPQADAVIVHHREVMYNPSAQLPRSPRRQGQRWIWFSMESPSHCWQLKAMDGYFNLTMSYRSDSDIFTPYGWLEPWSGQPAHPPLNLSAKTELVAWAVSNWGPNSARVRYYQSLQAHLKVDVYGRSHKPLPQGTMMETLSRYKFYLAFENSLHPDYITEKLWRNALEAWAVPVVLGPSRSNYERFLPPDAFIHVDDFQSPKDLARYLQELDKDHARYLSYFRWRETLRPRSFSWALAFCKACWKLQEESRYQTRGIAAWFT
Protocol: as §1, §2, §3

[4] = target: T4, human fucose-binding DC-SIGN lectin (Homo sapiens, UniProt Q9NNX6); test: Recognition by DC-SIGN lectin
T4 sequence (Q9NNX6 1-404): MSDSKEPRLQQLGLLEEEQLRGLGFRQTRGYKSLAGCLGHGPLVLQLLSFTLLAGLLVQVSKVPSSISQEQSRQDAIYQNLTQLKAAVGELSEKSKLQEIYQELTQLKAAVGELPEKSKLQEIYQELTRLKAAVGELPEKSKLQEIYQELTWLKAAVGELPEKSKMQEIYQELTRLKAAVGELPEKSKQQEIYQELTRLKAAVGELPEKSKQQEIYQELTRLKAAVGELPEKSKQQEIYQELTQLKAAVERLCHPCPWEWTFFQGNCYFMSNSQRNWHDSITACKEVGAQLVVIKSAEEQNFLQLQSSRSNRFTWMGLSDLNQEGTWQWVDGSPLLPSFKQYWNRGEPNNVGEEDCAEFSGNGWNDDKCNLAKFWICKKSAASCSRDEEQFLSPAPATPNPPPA

For CC1OC2Oc3ccc(CC(=O)O)cc3SC2C(O)C1O (stereo not drawn) [mimetic 1], the “inhibition of FTVII sLe^x production” value ([1]; 1.0 mM GDP-Fuc with 1.0 mM or 2.0 mM mimetic 1) was “inhibition was clear”, the “level of FTVII inhibition in pre-incubation reactions” value ([1]; pre-incubation with 2.0 mM mimetic 1, then 1.0 mM GDP-Fuc) was “stronger” and the “inhibition of FTIX production of Le^x” value [2] was “did not inhibit FTIX production of Le^x”. The “inhibition of FTVI production of Le^x” value [3] was “clearly inhibited”, the “inhibition of FTVI production of sLe^x” value [3] was “markedly diminished” and the “recognition by DC-SIGN lectin” value [4] was “not recognized”.

— patent publication US12486298B2, “Fucosyltransferase specific inhibition using fucose mimetics” (THE FLORIDA INTERNATIONAL UNIVERSITY BOARD OF TRUSTEES, priority 2020, dated 2025)
